Source: ChEMBL document CHEMBL1124555, “9-Amino-1,2,3,4-tetrahydroacridin-1-ols: synthesis and evaluation as potential Alzheimer's disease therapeutics” (J Med Chem, 1989)

Experiments:
in vivo = settings: rat, ip
Description: Toxicity evaluated in rats after intraperitoneal administration.

[1] = biological target: Sodium-dependent serotonin transporter (Rattus norvegicus, UniProt P31652); format: functional
Description: Inhibition of serotonin reuptake in rat whole brains without cerebellum

[2] = biological target: Norepinephrine transporter (Rattus norvegicus, UniProt Q9WTR4)
Description: Inhibition of norepinephrine reuptake in rat whole brains minus cerebellar

Acetylcholinesterase = biological target: T1, Acetylcholinesterase (Rattus norvegicus, UniProt P37136)
T1 sequence (P37136 whole entry): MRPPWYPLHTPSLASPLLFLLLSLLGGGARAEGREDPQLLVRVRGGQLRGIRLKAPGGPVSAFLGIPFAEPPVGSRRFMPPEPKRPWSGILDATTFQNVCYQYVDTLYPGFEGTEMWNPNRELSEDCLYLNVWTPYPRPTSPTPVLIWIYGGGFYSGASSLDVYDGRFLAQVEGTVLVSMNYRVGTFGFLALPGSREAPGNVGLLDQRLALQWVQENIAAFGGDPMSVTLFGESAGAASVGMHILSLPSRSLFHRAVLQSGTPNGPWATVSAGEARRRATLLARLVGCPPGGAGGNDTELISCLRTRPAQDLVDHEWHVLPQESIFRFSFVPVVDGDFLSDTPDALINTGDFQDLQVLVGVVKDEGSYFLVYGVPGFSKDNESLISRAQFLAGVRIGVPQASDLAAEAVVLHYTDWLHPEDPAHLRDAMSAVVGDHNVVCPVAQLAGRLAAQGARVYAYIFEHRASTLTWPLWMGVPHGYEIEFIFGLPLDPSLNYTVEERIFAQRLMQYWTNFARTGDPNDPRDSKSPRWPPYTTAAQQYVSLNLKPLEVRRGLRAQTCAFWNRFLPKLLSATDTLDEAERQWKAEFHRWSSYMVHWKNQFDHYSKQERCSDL
Description: In vitro inhibition against acetylcholinesterase in rat striata.

[3] = biological target: Sodium-dependent dopamine transporter (Rattus norvegicus, UniProt P23977); format: functional
Description: Inhibition of the reuptake of dopamine in rat corpora striata.

Mus musculus [4] = species on record: Mus musculus; format: functional; settings: at 0.16 mg/kg
Description: Reversal of scopolamine-induced memory impairment in mice at 0.16 mg/Kg administered subcutaneously.

Mus musculus [5] = species on record: Mus musculus; format: functional; settings: at […]
Description: Reversal of scopolamine-induced memory impairment in mice at 0.31 mg/Kg administered subcutaneously.

Mus musculus [6] = species on record: Mus musculus; format: functional; settings: at 0.63 mg/kg
Description: Reversal of scopolamine-induced memory impairment in mice at 0.63 mg/Kg administered subcutaneously.

Mus musculus [7] = species on record: Mus musculus; format: functional; settings: at 5 mg/kg
Description: Reversal of scopolamine-induced memory impairment in mice at 5 mg/Kg administered subcutaneously.

Mus musculus [8] = species on record: Mus musculus; format: functional; settings: at 2.5 mg/kg
Description: Reversal of scopolamine-induced memory impairment in mice at 2.5 mg/Kg administered subcutaneously.

Mus musculus [9] = species on record: Mus musculus; format: functional; settings: at 1.25 mg/kg
Description: Reversal of scopolamine-induced memory impairment in mice at 1.25 mg/Kg administered subcutaneously.

[10] = Toxicity was evaluated in rats, after intraperitoneal administration;Value ranges from (40-80).; format: organism-based; settings: rat, in vivo, ip

Sequence of Sodium-dependent serotonin transporter (P31652 whole entry): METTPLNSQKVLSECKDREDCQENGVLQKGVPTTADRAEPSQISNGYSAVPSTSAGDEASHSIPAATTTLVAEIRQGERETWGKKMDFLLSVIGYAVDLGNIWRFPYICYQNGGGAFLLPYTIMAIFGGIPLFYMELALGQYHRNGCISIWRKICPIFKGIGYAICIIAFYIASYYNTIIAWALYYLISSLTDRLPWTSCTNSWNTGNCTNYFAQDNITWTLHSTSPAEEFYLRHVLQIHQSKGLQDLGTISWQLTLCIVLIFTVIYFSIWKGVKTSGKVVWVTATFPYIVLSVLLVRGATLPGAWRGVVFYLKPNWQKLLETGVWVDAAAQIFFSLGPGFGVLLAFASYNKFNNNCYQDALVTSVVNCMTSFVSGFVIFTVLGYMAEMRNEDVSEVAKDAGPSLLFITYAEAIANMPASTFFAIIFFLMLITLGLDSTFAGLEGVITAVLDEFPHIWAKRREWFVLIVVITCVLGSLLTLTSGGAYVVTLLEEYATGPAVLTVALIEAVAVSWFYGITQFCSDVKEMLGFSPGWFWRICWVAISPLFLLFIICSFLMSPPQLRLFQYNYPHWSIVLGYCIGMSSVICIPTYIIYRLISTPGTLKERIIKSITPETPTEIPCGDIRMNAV
Sequence of Norepinephrine transporter (Q9WTR4 whole entry): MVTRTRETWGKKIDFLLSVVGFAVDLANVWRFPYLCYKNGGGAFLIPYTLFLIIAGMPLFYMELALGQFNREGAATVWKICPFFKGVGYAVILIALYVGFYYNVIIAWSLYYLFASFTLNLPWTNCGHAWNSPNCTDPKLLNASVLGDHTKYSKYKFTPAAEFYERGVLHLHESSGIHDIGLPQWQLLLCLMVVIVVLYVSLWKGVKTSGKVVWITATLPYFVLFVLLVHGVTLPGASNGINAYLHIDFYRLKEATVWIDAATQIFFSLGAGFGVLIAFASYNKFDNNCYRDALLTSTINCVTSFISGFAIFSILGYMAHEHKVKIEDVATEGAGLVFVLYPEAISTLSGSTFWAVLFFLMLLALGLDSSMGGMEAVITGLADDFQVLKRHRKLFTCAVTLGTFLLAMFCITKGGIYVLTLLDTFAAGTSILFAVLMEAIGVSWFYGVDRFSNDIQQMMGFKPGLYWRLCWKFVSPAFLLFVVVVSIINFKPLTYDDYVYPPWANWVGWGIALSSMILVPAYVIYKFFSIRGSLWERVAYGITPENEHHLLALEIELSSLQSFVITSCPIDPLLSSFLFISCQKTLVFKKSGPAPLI
Sequence of Sodium-dependent dopamine transporter (P23977 whole entry): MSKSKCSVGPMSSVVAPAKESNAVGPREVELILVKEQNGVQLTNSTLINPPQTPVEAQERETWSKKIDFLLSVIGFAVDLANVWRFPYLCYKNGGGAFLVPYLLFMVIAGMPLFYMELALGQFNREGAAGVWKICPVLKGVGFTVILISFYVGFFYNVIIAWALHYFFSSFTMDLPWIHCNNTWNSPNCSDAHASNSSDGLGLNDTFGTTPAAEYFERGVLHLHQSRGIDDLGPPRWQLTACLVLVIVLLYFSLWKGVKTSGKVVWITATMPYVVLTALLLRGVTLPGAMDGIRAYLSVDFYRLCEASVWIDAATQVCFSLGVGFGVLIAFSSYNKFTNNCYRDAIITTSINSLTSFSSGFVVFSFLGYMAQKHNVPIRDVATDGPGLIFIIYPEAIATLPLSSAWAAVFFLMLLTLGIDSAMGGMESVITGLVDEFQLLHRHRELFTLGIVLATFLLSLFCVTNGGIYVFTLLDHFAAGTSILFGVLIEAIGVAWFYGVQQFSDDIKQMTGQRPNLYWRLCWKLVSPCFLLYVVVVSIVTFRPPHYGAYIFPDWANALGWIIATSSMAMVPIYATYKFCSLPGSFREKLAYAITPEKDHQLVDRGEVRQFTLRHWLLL

SMILES	LD50 (in vivo)	IC50 [1]	IC50 [2]	IC50 (Acetylcholinesterase)	IC50 [3]	Animals (Mus musculus [4])	Animals (Mus musculus [5])	Animals (Mus musculus [6])	Animals (Mus musculus [7])	Animals (Mus musculus [8])	Animals (Mus musculus [9])	LD50 [10]
O=C(O)/C=C/C(=O)O.OC1CCCc2nc3ccccc3c(NCc3cccs3)c21 (configuration not stated)	> 80 mg/kg	20 µM	290 nM	15.3 µM	2400 nM	–	–	–	–	–	–	–
O=C(O)/C=C/C(=O)O.OC1CCCc2nc3ccccc3c(NCc3c(F)c(F)c(F)c(F)c3F)c21 (configuration not stated)	> 80 mg/kg	–	11000 nM	12.6 µM	–	7%	7%	7%	20%	0%	13%	–
O=C(O)/C=C/C(=O)O.OC1CCCc2nc3ccccc3c(NCCCC(c3cccc(F)c3)c3cccc(F)c3)c21 (configuration not stated)	> 80 mg/kg	–	–	63 µM	–	–	–	–	–	–	–	–
OC1CCCc2nc3cc(Cl)ccc3c(NCc3ccc(F)cc3)c21 (configuration not stated)	> 80 mg/kg	6.6 µM	2200 nM	0.823 µM	4100 nM	13%	7%	7%	0%	0%	7%	–
Nc1c2c(nc3cc(Cl)ccc13)CCCC2O (configuration not stated)	> 10 mg/kg	> 20 µM	> 20000 nM	0.0117 µM	> 20000 nM	7%	7%	0%	16%	0%	7%	–
OC1CCCc2nc3ccccc3c(NCc3ccc(F)cc3)c21 (configuration not stated)	–	12 µM	1800 nM	16.7 µM	2900 nM	7%	20%	25%	6%	33%	27%	< 80 mg/kg
COc1ccc(CNc2c3c(nc4ccccc24)CCCC3O)cc1 (configuration not stated)	> 80 mg/kg	5 µM	25000 nM	10.9 µM	5300 nM	–	–	–	–	–	–	–
CN(C)CCNc1c2c(nc3ccccc13)CCCC2O (configuration not stated)	> 80 mg/kg	–	–	7.68 µM	–	–	–	–	–	–	–	–
OC1CCCc2nc3ccccc3c(NCc3ccc(C(F)(F)F)cc3)c21 (configuration not stated)	> 80 mg/kg	6.6 µM	270 nM	18.1 µM	2400 nM	22%	8%	7%	20%	0%	15%	–
OC1CCCc2nc3cc(F)ccc3c(NCc3ccccc3)c21 (configuration not stated)	–	–	200 nM	8.63 µM	–	13%	0%	0%	0%	0%	0%	< 80 mg/kg
OC1CCCc2nc3ccccc3c(NCc3ccccc3Cl)c21 (configuration not stated)	> 80 mg/kg	9.3 µM	43 nM	10.3 µM	130 nM	0%	27%	7%	7%	13%	27%	–
Nc1c2c(nc3cc(F)ccc13)CCCC2O (configuration not stated)	40 mg/kg	–	> 10000 nM	0.292 µM	–	73%	29%	20%	40%	33%	20%	–
OC1CCCc2nc3ccccc3c(NCCCC(c3ccc(F)cc3)c3ccc(F)cc3)c21 (configuration not stated)	> 80 mg/kg	–	–	87.8 µM	–	–	–	–	–	–	–	–
OC1CCCc2nc3cc(C(F)(F)F)ccc3c(NCc3ccccc3)c21 (configuration not stated)	> 80 mg/kg	–	–	68.2 µM	–	–	–	–	–	–	–	–
COc1ccc2c(N)c3c(nc2c1)CCCC3O (configuration not stated)	> 80 mg/kg	–	–	2 µM	–	–	–	–	–	–	–	–
OC1CCCc2nc3ccccc3c(NCCc3ccccc3)c21 (configuration not stated)	> 80 mg/kg	7.7 µM	1400 nM	3.39 µM	4700 nM	7%	20%	0%	0%	0%	23%	–
Nc1c2c(nc3ccccc13)CCC2O (configuration not stated)	> 80 mg/kg	–	–	5.97 µM	–	13%	13%	0%	7%	7%	0%	–
OC1CCCc2nc3cc(Cl)ccc3c(NCc3ccccc3)c21 (configuration not stated)	> 80 mg/kg	15 µM	820 nM	1.3 µM	1300 nM	0%	13%	7%	0%	7%	7%	–
OC1CCCc2nc3ccccc3c(NCc3ccc(Cl)cc3)c21 (configuration not stated)	> 80 mg/kg	5.7 µM	1100 nM	27.2 µM	9800 nM	–	–	–	–	–	–	–
OC1CCCc2nc3ccccc3c(NCc3cccc(Cl)c3)c21 (configuration not stated)	> 80 mg/kg	–	–	13.3 µM	–	–	–	–	–	–	–	–
OC1CCCc2nc3ccccc3c(NCc3ccccc3F)c21 (configuration not stated)	–	17 µM	110 nM	41.3 µM	410 nM	7%	14%	33%	7%	20%	7%	< 80 mg/kg
Cc1ccc(CNc2c3c(nc4ccccc24)CCCC3O)cc1 (configuration not stated)	> 80 mg/kg	8 µM	1100 nM	21 µM	2200 nM	–	–	–	–	–	–	–
OC1CCCc2nc3ccccc3c(NCc3cccc(C(F)(F)F)c3)c21 (configuration not stated)	–	2.3 µM	930 nM	14.2 µM	2400 nM	0%	0%	0%	0%	0%	7%	< 80 mg/kg
OC1CCCc2nc3ccccc3c(NCCCC(c3ccccc3)c3ccccc3)c21 (configuration not stated)	> 80 mg/kg	5.7 µM	1500 nM	49.3 µM	2100 nM	20%	6%	6%	6%	0%	13%	–
COc1cccc(CNc2c3c(nc4ccccc24)CCCC3O)c1 (configuration not stated)	> 80 mg/kg	6.2 µM	1500 nM	21.1 µM	2100 nM	0%	0%	0%	0%	0%	0%	–
COc1ccccc1CNc1c2c(nc3ccccc13)CCCC2O (configuration not stated)	80 mg/kg	9.8 µM	4800 nM	36 µM	720 nM	33%	7%	20%	27%	13%	7%	–
OC1CCCc2nc3cc(F)ccc3c(NCc3ccccc3C(F)(F)F)c21 (configuration not stated)	> 80 mg/kg	20 µM	540 nM	20.1 µM	310 nM	0%	20%	7%	13%	0%	0%	–
OC1CCCc2nc3ccccc3c(NCCCOc3ccccc3)c21 (configuration not stated)	> 80 mg/kg	–	–	3.98 µM	–	0%	0%	0%	–	7%	13%	–
